This note sets out measurements from ChEMBL document CHEMBL1150481, “The inhibition of glutamate racemase by” (Bioorg Med Chem Lett, 1997).

The nature of data set [1]: Inhibition towards diaminopimelate (DAP) epimerase was determined.
Data set [2] deals with T1, Glutamate racemase (Lactobacillus fermentum, UniProt Q03469).
T1 sequence (Q03469 whole entry): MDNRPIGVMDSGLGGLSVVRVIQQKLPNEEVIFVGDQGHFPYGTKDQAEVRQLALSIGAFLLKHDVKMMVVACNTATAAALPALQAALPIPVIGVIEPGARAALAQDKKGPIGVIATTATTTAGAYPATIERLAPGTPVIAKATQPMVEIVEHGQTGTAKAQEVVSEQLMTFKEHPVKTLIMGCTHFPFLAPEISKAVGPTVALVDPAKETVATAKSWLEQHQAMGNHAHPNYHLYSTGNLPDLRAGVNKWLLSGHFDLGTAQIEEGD
Put plainly: Inhibition towards glutamate racemase from Lactobacillus fermenti was determined and expressed as KI. More on the design: species or system Limosilactobacillus fermentum.

For data set [3], the target named is T1, Glutamate racemase. Put plainly: Inhibition towards glutamate racemase was determined and expressed as KI. More on the design: species or system Limosilactobacillus fermentum.
The nature of data set [4]: Ratio of kcat to that of KM was determined.
Data set [5] addresses T2, Glutamate racemase (Lactobacillus fermentum) (UniProt Q03469).
T2 sequence (whole entry): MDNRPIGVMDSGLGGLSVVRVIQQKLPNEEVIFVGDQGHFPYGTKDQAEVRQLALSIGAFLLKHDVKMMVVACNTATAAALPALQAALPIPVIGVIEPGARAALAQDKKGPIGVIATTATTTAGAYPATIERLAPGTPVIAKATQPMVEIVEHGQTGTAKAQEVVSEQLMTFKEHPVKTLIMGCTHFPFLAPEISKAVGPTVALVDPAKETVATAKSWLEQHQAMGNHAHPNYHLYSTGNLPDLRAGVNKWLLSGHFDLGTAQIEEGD
Put plainly: Enzyme kinetic constant for Glutamate racemase and expressed as Kcat.

The nature of data set [6]: Inhibition towards diaminopimelate (DAP) epimerase was determined and expressed as KI.
Substrate in data set [7]: O=C(O)CCC(=O)C(=O)O
Description: Enzyme kinetic constant for Glutamate racemase and expressed as Km.

Substrate in data set [8]: N[C@H](CCC(=O)O)C(=O)O
To be noted: Limosilactobacillus fermentum.

In general, IC50 refers to the concentration that inhibits the measured activity by half. A low value points to higher potency. For the molecule `N[C@@H](CC[C@H](F)[C@@H](N)C(=O)O)C(=O)O`, in data set [1], the IC50 worked out at 8 µM. For orientation: Ki means the dissociation constant of the complex between target and ligand, obtained from inhibition or displacement. A high value points to a looser hold on the target. With `N[C@H](CCC(=O)O)C(=O)O` [D-GLUTAMATE], the values for the Ki at Glutamate racemase [2] and at Glutamate racemase [3] were 56 µM and 190 µM, respectively. The k cat/Km in data set [4] was found to be 3700 M⁻¹ s⁻¹.

Take `N[C@@H](CCC(=O)O)C(=O)O` [GLUTAMIC ACID]: the Ki at Glutamate racemase [2] stood at 28 µM. In addition, in data set [4], the k cat/Km came to 30 M⁻¹ s⁻¹. The molecule `O=C(O)CCC(=O)C(=O)O` showed a k cat in data set [5] of 0.18 s⁻¹. In addition, the k cat/Km in data set [4] worked out at 3200 M⁻¹ s⁻¹. In the case of `NC(CCCC(NO)C(=O)O)C(=O)O` (centres undefined), in data set [6], the Ki was 5.6 µM. In data set [1], `N[C@H](C(=O)O)[C@H](F)CC[C@H](N)C(=O)O` had an IC50 of 10 µM. The molecule `N[C@H](C(=O)O)[C@@H](F)CC[C@H](N)C(=O)O` showed an IC50 in data set [1] of 4 µM. Same read-out and setting: with `N[C@@H](CC[C@@H](F)[C@@H](N)C(=O)O)C(=O)O` the figure was 25 µM.

B1: Glutamate racemase (Lactobacillus fermentum), Q03469 (protein)
chain: MDNRPIGVMDSGLGGLSVVRVIQQKLPNEEVIFVGDQGHFPYGTKDQAEVRQLALSIGAFLLKHDVKMMVVACNTATAAALPALQAALPIPVIGVIEPGARAALAQDKKGPIGVIATTATTTAGAYPATIERLAPGTPVIAKATQPMVEIVEHGQTGTAKAQEVVSEQLMTFKEHPVKTLIMGCTHFPFLAPEISKAVGPTVALVDPAKETVATAKSWLEQHQAMGNHAHPNYHLYSTGNLPDLRAGVNKWLLSGHFDLGTAQIEEGD
As usually defined, the Km is the concentration of substrate that gives half-maximal velocity. For the molecule B1, the values for the Km in data set [7] and in data set [8] were 57 µM and 300 µM, respectively.
